Measurements: patent US12637424B2, “Pharmaceutical salt of an arylpyrrole derivative” (SENTINEL ONCOLOGY LIMITED, priority 2020, dated 2026)

Legend:
HeLa = assay: Mitotic index (phospho-histone H3) assay; format: cell-based; conditions: Homo sapiens, % mitotic cells (pH3-positive), 24 hours
Excerpt: (§1) Inhibiting the ability of PLK1 and PLK4 to bind to their partners through their PBDs is known to cause cells to arrest in mitosis. Experimentally, this can be measured by assessing the number of cells which are in mitosis at a certain time after treatment with a test compound by immunofluorescent detection of phosphorylated Histone H3 (pH3), a mark which is only present in mitotic cells. PLK1/4-PBD inhibitors are expected to cause a dose-dependent increase in pH3-positive cells, which is reported as Mitotic Index (MI)—the percentage of cells which, at a given time, are positive for this mitotic mark. Cells were plated at 10 000/well in 96-well plates and incubated overnight. The following day atropisomer A-2 stocks in DMSO were diluted in medium then added to cells with a maximum final DMSO concentration on cells of 0.2%. Cells were incubated with the compound for 24 hours then fixed in 3.7% formaldeyde. Cells were permeabilised with 0.1% Triton X-100 then incubated with anti-phospho-histone H3 (Ser10) antibody (Abcam ab5176). The cells were washed with PBS then incubated with AlexaFluor 488 labelled goat anti-rabbit IgG (Invitrogen A11034) in the presence of 4 ug/ml Hoechst 33342 (Invitrogen H3570). Cells were washed in PBS then imaged on an Arrayscan VTi HCS instrument (Thermo Fisher) using the Target Activation V4 Bioapplication. […]

U87MG = assay: Mitotic index (phospho-histone H3) assay; format: cell-based; conditions: Homo sapiens, U-87 MG; % mitotic cells (pH3-positive), 24 hours
Excerpt: as §1

- EC50 (HeLa): 30 nM
- EC50 (U87MG): 90 nM
Structure (SMILES): CN(C)CCNC(=O)c1ccc(-c2ccc(-c3ccc(Cl)cc3)n2-c2ccccc2C(F)(F)F)cc1 (single isomer, unassigned) [Atropisomer A-2]
